According to PMC7039006 (2020):

How the values were obtained:
[1] = tested on: 5'-AGCA overhang on iM7 (DNA, i motif) AGCACCCCTTTCCC; assay: fluorescence enhancement; details: 2 mM MgCl2; TAE pH 5; 1 μM DNA, 3 μM THIA
[2] = tested on: 5'-AGAA overhang on iM7 (DNA, i motif) AGAACCCCTTTCCC; assay: fluorescence enhancement; details: 2 mM MgCl2; TAE pH 5; 1 μM DNA, 3 μM DSMB
[3] = tested on: iM7 (C4T3C3) (DNA, i motif) CCCCTTTCCC; assay: CD melting at 290 nm; details: 2 mM MgCl2; TAE pH 5; 50 μM DNA, 150 μM ThT; Tm stated unchanged
[4] = tested on: 5'-GGA overhang on iM7 (DNA, i motif) GGACCCCTTTCCC; assay: fluorescence enhancement; details: 2 mM MgCl2; TAE pH 5, 22°C; 1 μM DNA, 3 μM ThT
[5] = tested on: TiM9 (TGGAC5T3C4) (DNA, i motif) TGGACCCCCTTTCCCC; assay: CD melting at 290 nm; details: 2 mM MgCl2; TAE pH 5; 50 μM DNA, 150 μM ThT
[6] = tested on: iM9 (C5T3C4) (DNA, i motif) CCCCCTTTCCCC; assay: CD melting at 290 nm; details: 2 mM MgCl2; TAE pH 5; 50 μM DNA, 150 μM ThT; Tm stated unchanged
[7] = tested on: 3'-GGGA on C3T3C4 (DNA, i motif) CCCTTTCCCCGGGA; assay: fluorescence enhancement; details: 2 mM MgCl2; TAE pH 5, 22°C; 1 μM DNA, 3 μM ThT
[8] = tested on: 5'-GGA overhang on iM9 (DNA, i motif) GGACCCCCTTTCCCC; assay: fluorescence enhancement; details: 2 mM MgCl2; TAE pH 5, 22°C; 1 μM DNA, 3 μM ThT
[9] = tested on: FNA-TiM9 (Th46/Th58 tetrahedron heterodimer tethered with TiM9) (DNA, other) TTCAGACGGAATGTGCTTCCCAAGTGTCGTTTGTATTGGCTCGCAT/TCAACTGGGTGATAAAACGACACTTGGGAATCTACTATGGCTCTTC/TATCACCCAGTTGACAGTGTAGCATGTAATAGATGCGAGCCAATAC/ACATTCCGTCTGAAACATTACATGCTACACGAGAAGAGCCATAGTATTTTTTTTATAAATAATTGGACCCCCTTTCCCC/TTCAGACTTAGGAATGTTGCTTCCCACGTAGTGTCGTGTTGGTATTGGACCCTCGCAT/TCAACTGCCTGGTGATAAAACACGACACTACGTGGGAATCTTACTATGGCGGCTCTTC/TTATCACCAGGCAGTTGACAGGTGTAGCAAGCTGTAATAGATGCGAGGGTCCAATACC/AACATTCCTAAGTCTGAAACATTACAGCTTGCTACACCGAGAAGAGCCGCCATAGTAATTTTTTAATATTTATAATGGACCCCCTTTCCCC; assay: fluorescence enhancement; details: 2 mM MgCl2; TAE pH 5; 0.4 μM FNA, 0.4 μM ThT; over 20-fold fluorescence increase versus pH 8
[10] = tested on: TiM7 (5'-TGGA-C4T3C3) (DNA, i motif) TGGACCCCTTTCCC; assay: fluorescence titration; details: 2 mM MgCl2; TAE pH 5, 22°C; 3 μM ThT titrated with DNA
[11] = tested on: 3'-GGGA on C4T3C5 (DNA, i motif) CCCCTTTCCCCCGGGA; assay: fluorescence enhancement; details: 2 mM MgCl2; TAE pH 5, 22°C; 1 μM DNA, 3 μM ThT
[12] = tested on: TiM7 (5'-TGGA-C4T3C3) (DNA, i motif) TGGACCCCTTTCCC; assay: CD melting at 290 nm; details: 2 mM MgCl2; TAE pH 5; 50 μM DNA, 150 μM ThT
[13] = tested on: TiM9 (TGGAC5T3C4) (DNA, i motif) TGGACCCCCTTTCCCC; assay: fluorescence titration; details: 2 mM MgCl2; TAE pH 5, 22°C; 3 μM ThT titrated with DNA
[14] = tested on: 5'-AGGA overhang on iM7 (DNA, i motif) AGGACCCCTTTCCC; assay: fluorescence enhancement; details: 2 mM MgCl2; TAE pH 5, 22°C; 1 μM DNA, 3 μM ThT
[15] = tested on: 5'-AGGA overhang on iM9 (DNA, i motif) AGGACCCCCTTTCCCC; assay: fluorescence enhancement; details: 2 mM MgCl2; TAE pH 5, 22°C; 1 μM DNA, 3 μM ThT

## CCN1/C(=C/c2sc3ccccc3[n+]2CC)Sc2ccccc21
[1]
  binding: yes

## CN(C)c1ccc(/C=C/c2sc3ccccc3[n+]2C)cc1
[2]
  binding: yes

## Cc1ccc2c(c1)sc(-c1ccc(N(C)C)cc1)[n+]2C
[3]
  binding: weak
[4]
  binding: weak
[5]
  binding: yes
[6]
  binding: weak
[7]
  binding: yes
[8]
  binding: weak
[9]
  binding: yes
[10]
  Kd: ~ 3.9 μM
[11]
  binding: yes
[12]
  binding: yes
[13]
  Kd: ~ 5.7 μM
[14]
  binding: yes
[15]
  binding: yes
